The record followed here is patent US10208034B2, “Quinoline derivative” (ONO PHARMACEUTICAL CO., LTD., priority 2014, dated 2019).

This assay deals with T1, Axl enzyme (Homo sapiens, UniProt P30530).
T1 sequence (P30530 26-894): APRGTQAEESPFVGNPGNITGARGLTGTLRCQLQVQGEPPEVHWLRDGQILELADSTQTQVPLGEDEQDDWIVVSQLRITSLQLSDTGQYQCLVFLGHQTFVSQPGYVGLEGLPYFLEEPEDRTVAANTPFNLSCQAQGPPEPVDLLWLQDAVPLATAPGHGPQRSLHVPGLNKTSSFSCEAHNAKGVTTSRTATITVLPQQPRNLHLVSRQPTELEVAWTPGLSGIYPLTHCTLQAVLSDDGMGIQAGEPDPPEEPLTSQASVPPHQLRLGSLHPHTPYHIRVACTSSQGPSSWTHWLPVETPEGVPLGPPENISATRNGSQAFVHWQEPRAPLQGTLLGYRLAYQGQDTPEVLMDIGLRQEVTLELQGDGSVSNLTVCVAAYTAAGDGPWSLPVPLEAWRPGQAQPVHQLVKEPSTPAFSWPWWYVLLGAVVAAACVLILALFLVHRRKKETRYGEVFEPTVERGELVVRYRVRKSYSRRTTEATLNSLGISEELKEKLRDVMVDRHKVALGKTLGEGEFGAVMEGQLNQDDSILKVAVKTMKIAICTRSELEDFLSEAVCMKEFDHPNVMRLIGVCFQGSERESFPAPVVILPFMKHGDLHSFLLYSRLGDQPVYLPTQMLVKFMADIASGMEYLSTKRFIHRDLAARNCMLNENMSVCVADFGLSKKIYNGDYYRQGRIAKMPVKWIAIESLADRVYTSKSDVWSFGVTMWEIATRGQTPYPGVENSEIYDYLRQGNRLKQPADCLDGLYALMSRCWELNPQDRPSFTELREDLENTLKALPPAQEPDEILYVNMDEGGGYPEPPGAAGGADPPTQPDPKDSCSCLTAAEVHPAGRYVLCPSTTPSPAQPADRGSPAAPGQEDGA
The experiment in a line: Measurement of Axl inhibitory activity (LanthaScreen TR-FRET, in vitro test). Format: biochemical. Particulars: Fluorescein-Poly GT substrate. The method, then:
Axl enzyme inhibitory activity was measured by using LanthaScreen (registered trademark) system (Invitrogen) based on the attached instruction. The reagents used are shown below.
Reaction buffer solution: a solution containing 50 mmol/L HEPES (pH7.5), 0.01% Brij35, 10 mmol/L MgCl2 and 1 mmol/L EGTA was prepared by using purified water.
Test substance solution: a solution containing a test compound of 5-fold concentration with respect to the final concentration was prepared by 20-fold diluting a DMSO solution of test compound of each concentration with the reaction buffer solution.
Enzyme solution: a solution containing 400 ng/mL Axl enzyme was prepared by using the reaction buffer solution.
Substrate solution: a solution containing 45 μmol/L ATP and 500 nmol/L Fluorescein-Poly GT (Invitrogen) was prepared by using the reaction buffer solution.
Detection solution: a solution containing 20 mM EDTA and 4 nM PY20 (Invitrogen) was prepared by using Dilution B (Invitrogen).
A 10 mmol/L DMSO solution of the test compound was dispensed into a 96-well plate (Nunc), and, furthermore, a 3-fold dilution series was prepared using DMSO. In each well of the 96-well plate for measurement, 5 μL each of the reaction buffer solution containing DMSO was added to a Blank group and a medium group, and 5 μL of the test substance solution was added to the test substance group, respectively. Next, 10 μL/well of the reaction buffer solution was added to the Blank group, and 10 μL/well each of the enzyme solution was added to the medium group and the test compound group, followed by stirring at room temperature for 10 min. After the completion of stirring, 10 μL each of the substrate solution was added into each well, followed by stirring at room temperature with light shielded for one hour. After the completion of reaction, 25 μL each of the detection solution was added to each well, and stood still at room temperature with light shielded for 30 min. After standing sill, fluorescence intensity at 520 nm and 495 nm at the time of irradiation with exciting light of 340 nm was measured by using Analyst GT (Molecular Devices). The phosphorylation of the artificial substrate was quantified by Time-resolved Fluorescence Resonance Energy Transfer (TR-FRET). TR-FRET ratio was calculated by dividing 520 nm fluorescence signal by 495 nm fluorescence signal for each well, and the inhibition rate (%) in the test compound group was calculated based on the following mathematical formula. Inhibition rate (%)=[1−(TR-FRET ratio of test compound group−A)/(B−A)×100 [Math. 1] A: average value of TR-FRET ratios of Blank group B: average value of TR-FRET ratios of medium group
Values of 50% inhibition rate (IC50 values) of the test compound were calculated from the inhibition curve based on the inhibition rate of the test compounds in each concentration.

The structures appear in SMILES notation.

Molecule `COc1cc2nccc(Oc3ccc(NC(=O)c4cc5ccncc5n(-c5ccccc5)c4=O)nc3)c2cc1OC` [Example 28, N-{5-[(6,7-dimethoxy-4-quinolinyl)oxy]-2-pyridinyl}-2-oxo-1-phenyl-1,2-dihydro-1,7-naphthyridine-3-carboxamide] came in with an IC50 of 1.3 nM.
For `COc1cc2nccc(Oc3ccc(NC(=O)c4cc(C(C)=O)cn(-c5ccccc5)c4=O)nc3)c2cc1OC` [Example 21, 5-acetyl-N-{5-[(6,7-dimethoxy-4-quinolinyl)oxy]-2-pyridinyl}-2-oxo-1-phenyl-1,2-dihydro-3-pyridinecarboxamide], 1.5 nM corresponded to half-maximal inhibition (IC50).
Turning to `COc1cc2nccc(Oc3ccc(NC(=O)c4c5c(cn(-c6ccccc6)c4=O)C(=O)CCC5)nc3)c2cc1OC` [Example 42, N-{5-[(6,7-dimethoxy-4-quinolinyl)oxy]-2-pyridinyl}-3,8-dioxo-2-phenyl-2,3,5,6,7,8-hexahydro-4-isoquinolinecarboxamide], the IC50 turned out to be 3.5 nM.
With `COc1cc2nccc(Oc3ccc(NC(=O)c4cc5c(n(-c6ccccc6)c4=O)CCCNC5=O)nc3)c2cc1OC` [Example 66, N-{5-[(6,7-dimethoxy-4-quinolinyl)oxy]-2-pyridinyl}-2,5-dioxo-1-phenyl-2,5,6,7,8,9-hexahydro-1H-pyrido[3,2-c]azepine-3-carboxamide] the figure was 1.5 nM.
